Reference: US20220193255A1, “CHLORHEXIDINE SYSTEMS AND METHODS FOR OBTAINING SAME” (priority 2019, published 2022)

Columns and labels:
[1] = Chlorhexidine gluconate remaining after gamma irradiation, measured by HPLC; assay type: physicochemical; details: for Chlorhexidine gluconate after irradiation, % / Preservation, %: initial CHD 0.075 wt %
Procedure: An aqueous solution of silver nitrate salt (as the source of silver) was prepared so that the final concentration of silver in the solution was 60 ppm. A 20 wt % aqueous solution of chlorhexidine gluconate (CHD) was added to make the resulting concentration of 0.05 wt %. Finally, isopropanol was added to achieve the concentration of 4 wt % in the resulting solution. The sample was a transparent colorless liquid. Thermo Scientific Evolution 220 Spectrophotometer was used to monitor the absorbance spectra of the sample, which is shown in FIG. 1 as the dashed line. The 30 ml sample solution was then subjected to irradiation by gamma rays at 7 kGy. The resulting solution was a transparent brownish liquid showing a clear peak of absorption at the wavelength 412.7 nm (solid line in FIG. 1), which corresponds to the presence of silver nanoparticles. The sample of the irradiated solution was presented for imaging to Transmission Electron Microscope (JEOL JEM 2100F) and an example of the image is shown in FIG. 2, which confirms formation of silver nanoparticles in the irradiated solution. The nanoparticles have quasi-spherical form and a visible conjugated layer around their surface. […]
Two identical samples were prepared as described in Example 1, each of them being colorless transparent aqueous solutions containing 60 ppm of silver in the form of silver nitrate, 0.5 wt % of polyvinyl alcohol, 4 wt % of isopropanol and 0.05 wt % of chlorhexidine gluconate. The samples were subjected to different doses of gamma irradiation—the first sample to 7 kGy and the second to 3 kGy. After irradiation the color of the samples changed to the transparent brown.
To evaluate any influence of the amount and the nature of the stabilizing agent, three different samples were prepared as described in Example 1. Each of them contained 30 ppm of silver in the form of silver nitrate and 0.05 wt % of chlorhexidine gluconate in an aqueous solution. The first sample additionally contained 0.5 wt % of polyvinyl alcohol (PVA) and 10 wt % of isopropanol, the second—2 wt % of polyvinyl alcohol and 10 wt % of isopropanol and the third sample additionally contained 1 wt % of polyvinylpyrrolidone (PVP) and 4 wt % of isopropanol. All three samples represented clear colorless liquids before irradiation. The irradiated at 10 kGy samples changed their color to the transparent brown color of different intensities. The concentration of chlorhexidine gluconate was measured using HPLC and determined as 0.015 wt % in the first and the second sample and 0.016 wt % in the third sample. The UV-vis spectra of all three samples show formation of silver nanoparticles, with the only difference that in the sample which contained PVP the nanoparticles are larger than in those which contained PVA (FIG. 5; the “shoulder” of the small dashed line indicates presence of nanoparticles larger than 100 nm).
To evaluate any difference caused by the initial amount of chlorhexidine gluconate, two samples were prepared as in Example 1, but one of them contained 0.05 wt % of chlorhexidine gluconate and another sample contained 0.075 wt % of chlorhexidine gluconate before irradiation. Both samples were irradiated at 7 kGy, by the action of which the nanoparticles of silver were formed in both samples.
To evaluate the influence of the amount of silver present in the form of a silver salt as a precursor for nanoparticles formation, three different samples were prepared as described in Example 1. Each of them contained 0.075 wt % of chlorhexidine gluconate, 0.5 wt % of polyvinyl alcohol and 4 wt % of isopropanol in an aqueous solution. Silver nitrate was added to each of the samples so that the concentration of silver in the samples was 15 ppm, 30 ppm and 60 ppm. All the samples were transparent colorless solutions. They were subjected to gamma irradiation at 7 kGy and the concentration of chlorhexidine gluconate was measured consequently using HPLC. […]

[2] = as above; assay type: physicochemical
[3] = Example 1: Ag 60 ppm (silver nitrate), initial CHD 0.05 wt %, isopropanol 4 wt %, gamma 7 kGy
[4] = Example 2: Ag 60 ppm, PVA 0.5 wt %, isopropanol 4 wt %, initial CHD 0.05 wt %, gamma 7 kGy
[5] = Example 4, first sample: initial CHD 0.05 wt %, silver nitrate, gamma 7 kGy
[6] = Example 4, second sample: initial CHD 0.075 wt %, silver nitrate, gamma 7 kGy
[7] = Example 5: Ag 15 ppm, PVA 0.5 wt %, isopropanol 4 wt %, gamma 7 kGy
[8] = Example 5: Ag 30 ppm, PVA 0.5 wt %, isopropanol 4 wt %, gamma 7 kGy
[9] = Example 5: Ag 60 ppm, PVA 0.5 wt %, isopropanol 4 wt %, gamma 7 kGy
[10] = Example 9: Au 30 ppm (chloroauric acid), isopropanol 4 wt %, initial CHD 0.05 wt %, gamma 3 kGy

concentration of chlorhexidine gluconate in the irradiated solution [1, 3]: 0.0295 wt %
rate of preservation compared to the initial level before irradiation [1, 3]: 59%
rate of preservation ([1]; Example 2: Ag 60 ppm, PVA 0.5 wt %, isopropanol 4 wt %, initial CHD 0.05 wt %, gamma 3 kGy): 79%
chlorhexidine gluconate after irradiation [1, 4]: 0.0294 wt %
rate of preservation [1, 4]: 58.8%
concentration of chlorhexidine gluconate after irradiation ([1]; Example 3, first sample: Ag 30 ppm, initial CHD 0.05 wt %, PVA 0.5 wt %, isopropanol 10 wt %, gamma 10 kGy): 0.015 wt %
concentration of chlorhexidine gluconate after irradiation ([1]; Example 3, second sample: Ag 30 ppm, initial CHD 0.05 wt %, PVA 2 wt %, isopropanol 10 wt %, gamma 10 kGy): 0.015 wt %
concentration of chlorhexidine gluconate after irradiation ([1]; Example 3, third sample: Ag 30 ppm, initial CHD 0.05 wt %, PVP 1 wt %, isopropanol 4 wt %, gamma 10 kGy): 0.016 wt %
concentration of chlorhexidine gluconate after irradiation [1, 5]: 0.0294 wt %
preservation rate [1, 5]: 58.8%
concentration of chlorhexidine gluconate after irradiation [1, 6]: 0.052 wt %
preservation rate [1, 6]: 69.3%
Chlorhexidine gluconate after irradiation, % [1, 7]: 0.043%
Preservation, % [1, 7]: 57.33%
Chlorhexidine gluconate after irradiation, % [1, 8]: 0.049%
Preservation, % [1, 8]: 65.33%
Chlorhexidine gluconate after irradiation, % [1, 9]: 0.052%
Preservation, % [1, 9]: 69.33%
preservation [1, 10]: 51.6%
presence of chlorhexidine in the irradiated sample ([2]; Example 8 (comparative): gold nanoparticles made chemically with ascorbic acid, CHD 0.05 wt % added afterwards, gamma 7 kGy): not detected
chlorhexidine gluconate detected after irradiation [2, 10]: 0.0258 wt %
Compound: [H]/N=C(\N/C(=N/[H])NCCCCCCNC(=N)NC(=N)Nc1ccc(Cl)cc1)Nc1ccc(Cl)cc1 [chlorhexidine gluconate]
